According to patent publication US20100173885A1, “ORGANOMETEALLIC COMPOUNDS” (priority 2007, published 2010):

Tests used:
[1] = Fluorescence quantum yield of photosensitizers; type: physicochemical; conditions: in MeOH at 648 nm after 410 nm excitation
Procedure: The UV-visible absorption spectra were recorded on an Uvikon 930 spectrophotometer and fluorescence spectra on a Perkin-Elmer LS50 spectrofluorometer.

RAW macrophages = assay: Phototoxicity in RAW macrophages, irradiation at 652 nm, MTT test; type: cell-based; conditions: RAW cells, 10 μM, 20 mW/cm^2, MTT 24 h after irradiation
Procedure: RAW cells were grown in 96-well cell culture plates (Corning, N.Y.) until 75% confluent in DMEM medium containing 10% FCS. The culture media were replaced with fresh medium containing the Ru, Os or Rh-porphyrin analogs at 10 μM (minimal dark cytotoxicity) and the cells were exposed overnight to the compounds. Then, the media were replaced with DMEM without phenol red containing 10% FCS and cells were irradiated at 652 nm using a diode laser (Applied Optronics, South Plainfield, N.J.) coupled to a frontal diffuser (Medlight SA, Ecublens, Switzerland), at an irradiance of 20 mW/cm^2. Experiments were performed in triplicate wells. Cell viability was evaluated 24 h later using the MTT test. Briefly, 3-(4,5-dimethyl-2-thiazoyl)-2,5-diphenyltetrazolium bromide (MTT, Merck) was added at 250 μg/mL and incubation was continued for 2 h, then the cell culture supernatants were removed. The cell layers were dissolved in iPrOH/0.04N HCl and the absorbance measured at 540 nm in a multiwell-plate reader (iEMS Reader MF, Labsystems, Bioconcept, Switzerland) and compared to the values of control cells incubated with the nanoparticles but without laser irradiation.

Molecule: [Ru4(η^6-1,4-C6H4(COOEt)2)4(TPP)Cl8] [Compound 5]
- fluorescence quantum yield φf [1]: 7.2%

Molecule: [Ru4(η^6-C6H5CH3)4(TPP)Cl8] [Compound 2]
- photosensitivity (photosensitizer ranking) (RAW macrophages): best photosensitizers amongst the Ru-porphyrin compounds
- fluorescence quantum yield φf [1]: 7.4%

Molecule: [OS4(η^6-p-Pr^iC6H4Me)4(TPP)Cl8] [Compound 6]
- fluorescence quantum yield φf [1]: 7.0%

Molecule: [Ru4(η^6-p-Pr^iC6H4Me)4(TPP)Cl8] [Compound 3]
- fluorescence quantum yield φf [1]: 7.9%

Molecule: [Ru4(η^6-C6Me6)4(TPP)Cl8] [Compound 4]
- fluorescence quantum yield φf [1]: 7.3%

Molecule: C1=Cc2nc1c(-c1ccncc1)c1ccc([nH]1)c(-c1ccncc1)c1nc(c(-c3ccncc3)c3ccc([nH]3)c2-c2ccncc2)C=C1 [TPP, 5,10,15,20-tetra(4-pyridyl)porphyrin, reference compound]
- fluorescence quantum yield φf [1]: 10.4%

Molecule: [Rh4(η^5-Cp*)4(TPP)Cl8] [Compound 7]
- fluorescence quantum yield φf [1]: 7.9%

Molecule: [Ir4(η^5-Cp*)4(TPP)Cl8] [Compound 8]
- fluorescence quantum yield φf [1]: 4.5%

Molecule: [Ru4(η^6-C6H6)4(TPP)Cl8] [Compound 1]
- photosensitivity (photosensitizer ranking) (RAW macrophages): best photosensitizers amongst the Ru-porphyrin compounds
- fluorescence quantum yield φf [1]: 6.1%
